From patent US11945794B2, “Nuclear transport modulators and uses thereof” (Karyopharm Therapeutics Inc., priority 2013, dated 2024)

Experiments:
3T3 cells = assay: MTT cell proliferation assay; format: cell-based; conditions: Mus musculus, NIH3T3, approximately 64-72 hours
Description: (§1) The MTT cell proliferation assay was used to study the cytotoxic properties of the compounds. The assay was performed according to the method described by Roche Molecular Biochemicals, with minor modifications. The assay is based on the cleavage of the tetrazolium salt, MTT, in the presence of an electron-coupling reagent. The water-insoluble formazan salt produced must be solubilized in an additional step. Cells grown in a 96-well tissue culture plate were incubated with the MTT solution for approximately 4 hours. After this incubation period, a water-insoluble formazan dye formed. After solubilization, the formazan dye was quantitated using a scanning multi-well spectrophotometer (ELISA reader). […] The cells were seeded at 5,000-10,000 cells in each well of 96-well plate in 100 μL of fresh culture medium and were allowed to attach overnight. The stock solutions of the compounds were diluted in 100 μL cell culture medium to obtain eight concentrations of each test compound, ranging from 1 nM to 30 μM. […] All optical densities were measured at 490 nm using a Vmax Kinetic Microplate Reader (Molecular Devices). In most cases, the assay was performed in duplicate and the results were presented as a mean percent inhibition to the negative control±SE. The following formula was used to calculate the percent of inhibition: Inhibition (%)=(1−(ODo/OD))×100.
(§2) The compounds were tested against Z138, MM1S and 3T3 cells. The Z138 cell line is a mature B-cell acute lymphoblastic leukemia cell line derived from a patient with chronic lumphocytic leukemia. The MM1S cell line was established from the peripheral blood of a human multiple myeloma patient. 3T3 cells are standard fibroblast cells; they were originally isolated from Swiss mouse embryo tissue.

MM1S cells = assay: MTT cell proliferation assay; format: cell-based; conditions: Homo sapiens, MM1.S, approximately 64-72 hours
Description: as §1, §2

Z138 cells = assay: MTT cell proliferation assay; format: cell-based; conditions: Homo sapiens, Z-138, approximately 64-72 hours
Description: as §1, §2

CRM1 = target: T1, CRM1 (Homo sapiens, UniProt O14980); assay: Inhibition of nuclear export, RevGFP assay in U2OS-RevGFP cells; format: cell-based; conditions: approximately 1 hour incubation
T1 construct: endogenous in cells; host or cells: U2OS cells stably expressing Rev-GFP
Description: The inhibition of CRM1 mediated nuclear export by compounds of the invention was determined in a RevGFP assay. Rev is a protein from human immunodeficiency virus type 1 (HIV-1) and contains a nuclear export signal (NES) in its C-terminal domain and a nuclear localization signal (NLS) in its N-terminal domain. Nuclear export of Rev protein is dependent on the classical NES/CRM1 pathway (Neville et al, 1997, Kau et al, 2003).
In this assay, U2OS-RevGFP cells were seeded onto clear-bottom, black, 384-well plates the day before the experiment. Compounds were serially diluted 1:2 starting from 40 μM in a separate 384-well plate in DMEM, and then transferred onto cells. Cells were incubated with compound for approximately 1 hour before fixation with 3.7% formaldehyde and nuclei staining with Hoechst 33258. The amount of GFP in cell nuclei was measured and compound IC50s were determined (Kau et al, 2003).

MDA-MB-468 xenograft = MDA-MB-468 xenograft model; format: in vivo, mouse; conditions: 10 mg/kg PO once daily, CB-17 SCID mice, compared to vehicle
Description: MDA-MB-468 (ATCC #HTB-102) breast adenocarcinoma cells were obtained from ATCC. These cells were grown in high glucose DMEM medium supplemented with 10% fetal bovine serum, 1% penicillin and streptomycin, and 2 mM L-Glutamine. Cells were sub-cultured by dilution at a ratio of 1:4. MDA-MB-468 cells were harvested by trypsinization and counted using a hemocytometer. Cells were resuspended in PBS at a concentration of 4×10^8 cells per mL. Cells were placed on ice and mixed with an equal volume of Matrigel (BD Biosciences CB-40234). Twenty-two (22) CB-17 SCID mice were inoculated sub-cutaneously in the left flank with 4×10^7 MDA-MB-468 cells. Treatment was initiated when the tumors reached a mean volume of ˜100 mm^3. […] Animals' weights and condition were recorded daily, and tumors were measured on Mondays, Wednesdays, and Fridays.

T1 sequence (O14980 whole entry): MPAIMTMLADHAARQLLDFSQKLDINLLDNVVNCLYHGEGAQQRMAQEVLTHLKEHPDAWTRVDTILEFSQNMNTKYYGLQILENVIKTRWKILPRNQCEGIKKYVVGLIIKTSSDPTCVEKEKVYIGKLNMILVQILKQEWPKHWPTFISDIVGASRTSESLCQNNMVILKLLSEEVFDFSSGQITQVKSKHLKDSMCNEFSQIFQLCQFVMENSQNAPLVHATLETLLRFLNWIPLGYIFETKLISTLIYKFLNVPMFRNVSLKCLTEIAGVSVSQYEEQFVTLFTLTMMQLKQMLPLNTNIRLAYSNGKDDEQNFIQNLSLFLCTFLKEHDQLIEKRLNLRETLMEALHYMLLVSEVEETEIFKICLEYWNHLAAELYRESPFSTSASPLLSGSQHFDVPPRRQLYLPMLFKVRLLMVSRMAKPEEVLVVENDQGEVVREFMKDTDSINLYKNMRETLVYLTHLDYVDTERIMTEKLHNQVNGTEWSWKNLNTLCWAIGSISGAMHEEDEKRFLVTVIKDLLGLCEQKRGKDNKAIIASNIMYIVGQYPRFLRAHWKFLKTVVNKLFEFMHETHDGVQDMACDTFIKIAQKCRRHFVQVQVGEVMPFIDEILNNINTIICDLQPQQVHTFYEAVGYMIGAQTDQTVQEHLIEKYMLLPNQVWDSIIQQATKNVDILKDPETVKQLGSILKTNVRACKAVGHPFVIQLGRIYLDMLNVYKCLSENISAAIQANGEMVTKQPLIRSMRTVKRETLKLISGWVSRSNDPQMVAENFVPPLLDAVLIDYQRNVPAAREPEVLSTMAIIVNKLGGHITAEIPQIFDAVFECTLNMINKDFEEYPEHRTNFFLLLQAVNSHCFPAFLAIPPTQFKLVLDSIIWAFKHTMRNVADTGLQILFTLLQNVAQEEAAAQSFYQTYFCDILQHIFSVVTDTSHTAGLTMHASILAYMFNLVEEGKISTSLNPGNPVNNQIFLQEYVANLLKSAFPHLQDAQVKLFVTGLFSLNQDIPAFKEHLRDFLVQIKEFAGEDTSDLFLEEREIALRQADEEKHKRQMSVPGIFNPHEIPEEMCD

SMILES	IC50 (MM1S cells)	IC50 (CRM1)	IC50 (3T3 cells)	IC50 (Z138 cells)	mean tumor volume (MDA-MB-468 xenograft)
NC(=O)/C(=C/n1cnc(-c2cc(C(F)(F)F)cc(C(F)(F)F)c2)n1)c1ccncc1 [Compound 108, (E)-3-(3-(3,5-bis(trifluoromethyl)phenyl)-1H-1,2,4-triazol-1-yl)-2-(pyridin-4-yl)acrylamide]	< 100 nM	< 100 nM	> 30000 nM	100 to 5000 nM	–
Cc1noc(C)c1/C(=C\n1cnc(-c2cc(C(F)(F)F)cc(C(F)(F)F)c2)n1)C(N)=O [Compound 118, (E)-3-(3-(3,5-bis(trifluoromethyl)phenyl)-1H-1,2,4-triazol-1-yl)-2-(3,5-dimethylisoxazol-4-yl) acrylamide]	100 to 5000 nM	100 to 5000 nM	> 30000 nM	100 to 5000 nM	–
CC(C)OC(=O)/C(=C/n1cnc(-c2cc(C(F)(F)F)cc(C(F)(F)F)c2)n1)c1cncc(F)c1 [Compound 119, isopropyl (E)-3-(3-(3,5-bis(trifluoromethyl)phenyl)-1H-1,2,4-triazol-1-yl)-2-(5-fluoropyridin-3-yl)acrylate]	100 to 5000 nM	100 to 5000 nM	> 30000 nM	100 to 5000 nM	–
NC(=O)/C(=C/n1cnc(-c2cc(C(F)(F)F)cc(C(F)(F)F)c2)n1)c1cnc(F)nc1 [Compound 137, (E)-3-(3-(3,5-bis(trifluoromethyl)phenyl)-1H-1,2,4-triazol-1-yl)-2-(2-fluoropyrimidin-5-yl)acrylamide]	< 100 nM	< 100 nM	> 30000 nM	100 to 5000 nM	–
NC(=O)/C(=C/n1cnc(-c2cc(C(F)(F)F)cc(C(F)(F)F)c2)n1)c1ccncc1F [Compound 138, (E)-3-(3-(3,5-bis(trifluoromethyl)phenyl)-1H-1,2,4-triazol-1-yl)-2-(3-fluoropyridin-4-yl)acrylamide]	< 100 nM	< 100 nM	100 to 5000 nM	< 100 nM	–
NC(=O)/C(=C/n1cnc(-c2cc(C(F)(F)F)cc(C(F)(F)F)c2)n1)c1ccc(Cl)nc1 [Compound 143, (E)-3-(3-(3,5-bis(trifluoromethyl)phenyl)-1H-1,2,4-triazol-1-yl)-2-(6-chloropyridin-3-yl)acrylamide]	< 100 nM	100 to 5000 nM	> 30000 nM	100 to 5000 nM	–
NC(=O)/C(=C/n1cnc(-c2cc(C(F)(F)F)cc(C(F)(F)F)c2)n1)c1cnc2ccccc2c1 [Compound 149, (E)-3-(3-(3,5-bis(trifluoromethyl)phenyl)-1H-1,2,4-triazol-1-yl)-2-(quinolin-3-yl)acrylamide]	< 100 nM	< 100 nM	> 30000 nM	< 100 nM	mean tumor volume was reduced
NC(=O)/C(=C\n1cnc(-c2cc(C(F)(F)F)cc(C(F)(F)F)c2)n1)c1ccnc(F)c1 [Compound 155, (Z)-3-(3-(3,5-bis(trifluoromethyl)phenyl)-1H-1,2,4-triazol-1-yl)-2-(2-fluoropyridin-4-yl)acrylamide]	< 100 nM	< 100 nM	100 to 5000 nM	< 100 nM	–
NC(=O)/C(=C\n1cnc(-c2cc(C(F)(F)F)cc(C(F)(F)F)c2)n1)c1ccc(Cl)nc1 [Compound 156, (Z)-3-(3-(3,5-bis(trifluoromethyl)phenyl)-1H-1,2,4-triazol-1-yl)-2-(6-chloropyridin-3-yl)acrylamide]	100 to 5000 nM	100 to 5000 nM	> 30000 nM	100 to 5000 nM	–

Now from value to compound, other results behind:

IC50 (MM1S cells)	IC50 (CRM1)	SMILES	IC50 (3T3 cells)	IC50 (Z138 cells)	mean tumor volume (MDA-MB-468 xenograft)
100 to 5000 nM	100 to 5000 nM	COc1ccc(/C(=C\n2cnc(-c3cc(C(F)(F)F)cc(C(F)(F)F)c3)n2)C(=O)OC(C)C)cn1 [Compound 120, isopropyl (E)-3-(3-(3,5-bis (trifluoromethyl)phenyl)-1H-1,2,4-triazol-1-yl)-2-(6-methoxypyridin-3-yl) acrylate]	> 30000 nM	100 to 5000 nM	–
< 100 nM	100 to 5000 nM	NC(=O)/C(=C/n1cnc(-c2cc(C(F)(F)F)cc(C(F)(F)F)c2)n1)c1cnc(N)nc1 [Compound 136, (E)-2-(2-aminopyrimidin-5-yl)-3-(3-(3,5-bis(trifluoromethyl)phenyl)-1H-1,2,4-triazol-1-yl)acrylamide]	> 30000 nM	100 to 5000 nM	–
< 100 nM	< 100 nM	NC(=O)/C(=C/n1cnc(-c2cc(C(F)(F)F)cc(C(F)(F)F)c2)n1)c1ccnc(F)c1 [Compound 140, (E)-3-(3-(3,5-bis(trifluoromethyl)phenyl)-1H-1,2,4-triazol-1-yl)-2-(2-fluoropyridin-4-yl)acrylamide]	> 30000 nM	< 100 nM	–
< 100 nM	100 to 5000 nM	NC(=O)/C(=C/n1cnc(-c2cc(C(F)(F)F)cc(C(F)(F)F)c2)n1)c1cncc(Cl)c1 [Compound 141, (E)-3-(3-(3,5-bis(trifluoromethyl)phenyl)-1H-1,2,4-triazol-1-yl)-2-(5-chloropyridin-3-yl)acrylamide]	> 30000 nM	100 to 5000 nM	–
< 100 nM	< 100 nM	NC(=O)/C(=C/n1cnc(-c2cc(C(F)(F)F)cc(C(F)(F)F)c2)n1)c1ccnc(C(F)(F)F)c1 [Compound 147, (E)-3-(3-(3,5-bis(trifluoromethyl)phenyl)-1H-1,2,4-triazol-1-yl)-2-(2-(trifluoromethyl)pyridin-4-yl)acrylamide]	100 to 5000 nM	100 to 5000 nM	–
< 100 nM	< 100 nM	N#Cc1cncc(/C(=C\n2cnc(-c3cc(C(F)(F)F)cc(C(F)(F)F)c3)n2)C(N)=O)c1 [Compound 148, (E)-3-(3-(3,5-bis(trifluoromethyl)phenyl)-1H-1,2,4-triazol-1-yl)-2-(5-cyanopyridin-3-yl)acrylamide]	> 30000 nM	< 100 nM	–
